Results as given in ChEMBL document CHEMBL4043137, “Structure-based design, synthesis and in vitro antiproliferative effects studies of novel dual BRD4/HDAC inhibitors” (Bioorg Med Chem Lett, 2017).

Assays:
OCI-AML-3 = test: cells; type: functional, cell-based; settings: Homo sapiens, OCI-AML-3, 72 h
Description: Antiproliferative activity against human OCI-AML3 cells after 72 hrs by MTT assay

[1] = target: T1, Bromodomain-containing protein 4 (Homo sapiens, UniProt O60885); test: Inhibition of human BRD4 bromo domain 2 at 0.5 uM
OCI-AML2 = test: cells; type: functional, cell-based; settings: Homo sapiens, OCI-AML2, 72 h
Description: Antiproliferative activity against human OCI-AML2 cells after 72 hrs by MTT assay

MV4-11 = test: cells; type: functional, cell-based; settings: Homo sapiens, MV4-11, 72 h
Description: Antiproliferative activity against human MV4-11 cells after 72 hrs by MTT assay

[2] = target: T1, Bromodomain-containing protein 4; test: Inhibition of human BRD4 bromo domain 2 at 5 uM
[3] = target: T1, Bromodomain-containing protein 4; test: Inhibition of human BRD4 bromo domain 2
[4] = target: T1, Bromodomain-containing protein 4; test: Inhibition of human BRD4 bromo domain 1
Histone deacetylase 1 = Histone deacetylase 1 (Homo sapiens, UniProt Q13547); test: Inhibition of recombinant human HDAC1 after 30 mins by fluorescence assay
Histone deacetylase 1, sequence (Q13547 whole entry): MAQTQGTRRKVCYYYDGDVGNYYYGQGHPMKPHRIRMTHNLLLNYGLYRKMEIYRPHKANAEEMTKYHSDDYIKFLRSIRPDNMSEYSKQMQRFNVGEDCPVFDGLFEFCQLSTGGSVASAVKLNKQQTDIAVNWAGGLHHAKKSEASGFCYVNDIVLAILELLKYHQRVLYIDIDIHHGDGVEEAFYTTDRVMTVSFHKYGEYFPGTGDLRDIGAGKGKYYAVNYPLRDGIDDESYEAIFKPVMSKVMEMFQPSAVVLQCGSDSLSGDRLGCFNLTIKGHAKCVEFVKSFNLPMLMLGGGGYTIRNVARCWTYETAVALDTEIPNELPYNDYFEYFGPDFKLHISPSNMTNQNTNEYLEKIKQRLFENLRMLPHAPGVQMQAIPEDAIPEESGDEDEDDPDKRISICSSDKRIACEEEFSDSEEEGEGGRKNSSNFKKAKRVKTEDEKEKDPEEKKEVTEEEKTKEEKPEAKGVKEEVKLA

[5] = target: T1, Bromodomain-containing protein 4; test: Inhibition of BRD4 (unknown origin)

| SMILES | IC50 (OCI-AML-3) | inhibition [1] | IC50 (OCI-AML2) | IC50 (MV4-11) | inhibition [2] | IC50 [3] | IC50 [4] | IC50 (Histone deacetylase 1) | IC50 [5] |
| --- | --- | --- | --- | --- | --- | --- | --- | --- | --- |
| COc1cc(OC)c2c(=O)[nH]c(-c3cc(C)c(OCCCCCCCC(=O)NO)c(C)c3)nc2c1 | 1.83 µM | 59% | 2.21 µM | 2.22 µM | 99% |  |  |  |  |
| COc1cc(OC)c2c(=O)[nH]c(-c3ccc(OCc4ccc(/C=C/C(=O)NO)cc4)cc3)nc2c1 | 1.8 µM |  | 1.78 µM | 1.97 µM |  |  |  |  |  |
| COc1cc(OC)c2c(=O)[nH]c(-c3cc(C)c(OCc4ccc(/C=C/C(=O)NO)cc4)c(C)c3)nc2c1 | 0.43 µM | 62% | 0.38 µM | 0.56 µM | 83% | 0.401 µM | > 5 µM | 0.204 µM |  |
| Cc1[nH]c2ccccc2c1CCNCc1ccc(/C=C/C(=O)NO)cc1 [PANOBINOSTAT] |  |  |  |  |  |  |  |  | 0.005 µM |
| COc1cc(OC)c2c(=O)[nH]c(-c3cc(C)c(OCCCCCCC(=O)NO)c(C)c3)nc2c1 |  | 29% |  |  | 88% |  |  |  |  |
| COc1cc(OC)c2c(=O)[nH]c(-c3cc(C)c(OC/C=C/C(=O)NO)c(C)c3)nc2c1 |  | 41% |  |  | 93% |  |  |  |  |
| COc1cc(OC)c2c(=O)[nH]c(-c3cc(C)c(OCCCCC(=O)NO)c(C)c3)nc2c1 | 1.09 µM | 73% | 1.52 µM | 1.67 µM | 91% | 0.225 µM | > 5 µM | 0.032 µM |  |
| COc1cc(OC)c2c(=O)[nH]c(-c3cc(C)c(OCCO)c(C)c3)nc2c1 [APABETALONE] | 7.17 µM |  | 8.31 µM | 4.48 µM |  |  |  |  |  |
| COc1cc(OC)c2c(=O)[nH]c(-c3cc(C)c(OCCCC(=O)NO)c(C)c3)nc2c1 | 5.53 µM | 42% | 4.53 µM | 5 µM | 90% |  |  |  |  |
| COc1cc(OC)c2c(=O)[nH]c(-c3ccc(OCCCCCC(=O)NO)cc3)nc2c1 | 11.1 µM |  | 13.6 µM | 4.28 µM |  |  |  |  |  |
| COc1cc(OC)c2c(=O)[nH]c(-c3ccc(OCCCCC(=O)NO)cc3)nc2c1 | 9.31 µM |  | 12.2 µM | 9.88 µM |  |  |  |  |  |
| O=C(CCCCCCC(=O)Nc1ccccc1)NO [VORINOSTAT] |  | 2% |  |  | 10% |  |  |  | 0.01 µM |
| COc1cc(OC)c2c(=O)[nH]c(-c3cc(C)c(Oc4ccc(C(=O)NO)cn4)c(C)c3)nc2c1 | 3.04 µM | 51% | 6.36 µM | 1.39 µM | 93% |  |  |  |  |
| COc1cc(OC)c2c(=O)[nH]c(-c3cc(C)c(O)c(C)c3)nc2c1 |  | 87% |  |  | 98% |  |  |  |  |
| COc1cc(OC)c2c(=O)[nH]c(-c3cc(C)c(OCCCCCC(=O)NO)c(C)c3)nc2c1 | 0.67 µM | 90% | 0.98 µM | 0.92 µM | 97% |  |  |  |  |
| C/C=C1\NC(=O)[C@H]2CSSCC/C=C/[C@H](CC(=O)N[C@H](C(C)C)C(=O)N2)OC(=O)[C@H](C(C)C)NC1=O [ROMIDEPSIN] |  |  |  |  |  |  |  |  | 0.036 µM |
